Experimental data from ChEMBL document CHEMBL1201862, “PubChem BioAssay data set” (2004).
Calls of active or inactive are those of the source.

What was measured:
[1] = molecular target: Beta-galactosidase (Escherichia coli, UniProt Q8VNN2); assay: PubChem AID 485352; format: functional
[2] = molecular target: T1, Type-1 angiotensin II receptor (Homo sapiens, UniProt P30556); assay: AT1 receptor antagonists, dose response, selectivity assay for APJ receptor antagonist project, cell-based, uHTS hits (AID 463214); format: functional;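 also: antagonist potency against angiotensin II stimulated AT1 response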
T1 sequence (P30556 whole entry): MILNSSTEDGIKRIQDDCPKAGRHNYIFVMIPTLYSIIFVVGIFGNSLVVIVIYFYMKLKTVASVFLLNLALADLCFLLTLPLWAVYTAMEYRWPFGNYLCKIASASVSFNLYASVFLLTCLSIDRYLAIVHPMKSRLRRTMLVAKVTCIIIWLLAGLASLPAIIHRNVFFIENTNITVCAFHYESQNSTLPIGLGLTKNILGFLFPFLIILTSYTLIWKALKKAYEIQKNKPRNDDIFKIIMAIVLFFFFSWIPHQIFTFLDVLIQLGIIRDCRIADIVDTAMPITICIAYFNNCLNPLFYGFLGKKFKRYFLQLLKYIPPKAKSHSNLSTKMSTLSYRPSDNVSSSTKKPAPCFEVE

[3] = molecular target: T2, Nuclear receptor subfamily 0 group B member 1 (Homo sapiens, UniProt P51843); assay: Luminescence-based cell-based high throughput dose response assay for inhibitors of the orphan nuclear receptor subfamily 0, group B, member 1 (DAX1; NR0B1). [Related pubchem assays (depositor defined):AID504766, AID504790]; format: functional
T2 sequence (P51843 whole entry): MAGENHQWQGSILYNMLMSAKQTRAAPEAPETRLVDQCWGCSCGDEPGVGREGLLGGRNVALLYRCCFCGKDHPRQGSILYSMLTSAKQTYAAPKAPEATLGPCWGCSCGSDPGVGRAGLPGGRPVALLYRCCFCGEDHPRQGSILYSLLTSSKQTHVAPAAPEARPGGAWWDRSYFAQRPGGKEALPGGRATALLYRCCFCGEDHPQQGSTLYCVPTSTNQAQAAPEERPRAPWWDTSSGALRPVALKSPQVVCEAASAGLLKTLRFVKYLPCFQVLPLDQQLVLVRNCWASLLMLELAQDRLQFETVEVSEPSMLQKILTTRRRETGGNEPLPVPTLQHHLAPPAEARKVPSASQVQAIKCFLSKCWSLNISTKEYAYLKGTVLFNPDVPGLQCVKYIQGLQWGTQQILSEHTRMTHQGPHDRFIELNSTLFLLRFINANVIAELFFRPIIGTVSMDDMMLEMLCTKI

[4] = tested on: HEK293; assay: cells; format: functional, cell-based; settings: Homo sapiens
[5] = molecular target: T3, Endoribonuclease toxin MazF (Escherichia coli K-12, UniProt P0AE70); assay: MazF toxin RNase activators, dose response, biochemical, fluorescence, single-stranded RNA substrate, uHTS hits (AID 588481); format: functional
T3 sequence (P0AE70 whole entry): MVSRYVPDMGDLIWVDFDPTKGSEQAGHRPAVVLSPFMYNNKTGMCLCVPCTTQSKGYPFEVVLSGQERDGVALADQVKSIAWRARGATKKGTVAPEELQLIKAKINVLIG

[6] = molecular target: T3, Endoribonuclease toxin MazF; assay: fluorescent RNA oligo signal without MazF, dose response, counter-screen for MazEF activator project, biochemical, fluorescence, single-stranded RNase substrate (AID 588502); format: functional
[7] = molecular target: T4, Cysteine protease ATG4B (Homo sapiens, UniProt Q9Y4P1); format: functional;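 also: Fluorescence-based dose-response confirmation assay measuring inhibition of ATG4B activity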
T4 sequence (Q9Y4P1 whole entry): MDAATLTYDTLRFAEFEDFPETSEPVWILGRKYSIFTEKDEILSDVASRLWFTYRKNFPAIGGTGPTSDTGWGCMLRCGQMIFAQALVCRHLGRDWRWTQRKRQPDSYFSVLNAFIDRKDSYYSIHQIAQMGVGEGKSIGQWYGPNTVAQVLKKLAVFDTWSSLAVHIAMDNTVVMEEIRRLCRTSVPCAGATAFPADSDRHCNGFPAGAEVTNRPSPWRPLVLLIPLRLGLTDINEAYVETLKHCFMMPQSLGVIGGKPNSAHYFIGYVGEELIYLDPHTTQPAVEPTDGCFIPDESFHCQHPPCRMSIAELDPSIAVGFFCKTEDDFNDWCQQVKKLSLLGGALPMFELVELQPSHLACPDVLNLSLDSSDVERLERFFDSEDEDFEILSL

[8] = molecular target: Phospholipase A2 (Homo sapiens, UniProt P04054); format: functional;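 also: confirmatory dose-response counterscreen on phospholipase A2, testing hits that came from an ultra-high-throughput screen for ATG4B inhibitors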
[9] = molecular target: Cytochrome P450 3A4 (Homo sapiens, UniProt P08684);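 also: CYP3A4 tested as one member of a cytochrome P450 panel screen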
[10] = molecular target: Cytochrome P450 2D6 (Homo sapiens, UniProt P10635);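 also: CYP2D6 member of a cytochrome P450 panel assay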
[11] = molecular target: T5, Sentrin-specific protease 8 (Homo sapiens, UniProt Q96LD8); format: functional;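 also: luminescence read-out of SENP8 inhibition, dose-response confirmation following an ultra-high-throughput screen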
T5 sequence (Q96LD8 whole entry): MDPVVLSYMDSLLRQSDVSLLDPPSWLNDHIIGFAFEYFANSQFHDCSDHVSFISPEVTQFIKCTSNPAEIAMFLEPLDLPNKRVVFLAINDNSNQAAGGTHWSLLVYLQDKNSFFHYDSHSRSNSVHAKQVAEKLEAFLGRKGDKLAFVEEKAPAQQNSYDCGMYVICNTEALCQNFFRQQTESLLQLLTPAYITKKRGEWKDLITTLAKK

[12] = molecular target: T6, Sentrin-specific protease 6 (Homo sapiens, UniProt Q9GZR1); format: functional;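 also: Luminescence-based dose-response confirmatory assay of SENP6 inhibition, following up an ultra-high-throughput screen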
T6 sequence (Q9GZR1 whole entry): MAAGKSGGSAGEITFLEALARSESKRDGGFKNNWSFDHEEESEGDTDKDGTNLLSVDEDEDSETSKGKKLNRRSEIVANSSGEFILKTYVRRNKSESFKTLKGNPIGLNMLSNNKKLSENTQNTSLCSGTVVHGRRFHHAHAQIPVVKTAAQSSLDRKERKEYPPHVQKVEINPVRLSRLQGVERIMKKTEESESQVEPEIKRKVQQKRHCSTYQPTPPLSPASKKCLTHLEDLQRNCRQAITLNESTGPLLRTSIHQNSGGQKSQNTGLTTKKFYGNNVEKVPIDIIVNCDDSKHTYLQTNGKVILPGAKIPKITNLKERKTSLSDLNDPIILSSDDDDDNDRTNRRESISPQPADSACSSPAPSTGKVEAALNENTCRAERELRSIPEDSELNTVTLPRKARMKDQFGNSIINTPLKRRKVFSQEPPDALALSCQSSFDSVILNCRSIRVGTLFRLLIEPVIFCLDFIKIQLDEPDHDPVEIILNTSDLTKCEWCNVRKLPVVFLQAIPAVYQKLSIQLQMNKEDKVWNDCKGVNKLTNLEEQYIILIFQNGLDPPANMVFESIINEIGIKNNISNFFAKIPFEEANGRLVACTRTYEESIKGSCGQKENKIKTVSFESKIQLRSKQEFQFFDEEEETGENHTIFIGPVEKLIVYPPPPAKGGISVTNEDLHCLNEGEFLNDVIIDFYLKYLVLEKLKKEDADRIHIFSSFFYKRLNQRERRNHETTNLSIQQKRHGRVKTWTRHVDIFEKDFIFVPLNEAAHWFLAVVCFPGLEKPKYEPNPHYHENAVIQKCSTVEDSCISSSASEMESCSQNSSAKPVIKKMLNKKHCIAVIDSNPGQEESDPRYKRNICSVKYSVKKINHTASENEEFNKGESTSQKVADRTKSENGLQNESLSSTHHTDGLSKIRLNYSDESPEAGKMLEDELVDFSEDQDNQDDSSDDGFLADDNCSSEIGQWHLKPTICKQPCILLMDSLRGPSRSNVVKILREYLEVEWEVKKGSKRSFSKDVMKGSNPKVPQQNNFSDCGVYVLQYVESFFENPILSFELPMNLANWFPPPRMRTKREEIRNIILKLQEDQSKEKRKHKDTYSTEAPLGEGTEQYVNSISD

[13] = tested on: HeLa; assay: HeLa cell cytotoxicity, dose response, cytotoxicity control for MITF activator project, CellTiter-Glo luminescence, cherry-pick samples (AID 540259); format: functional, cell-based; settings: Homo sapiens
[14] = molecular target: T7, Sentrin-specific protease 7 (Homo sapiens, UniProt Q9BQF6); format: functional;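 also: Luminescence-based dose-response confirmation of ultra-high-throughput screening hits, measuring inhibition of SENP7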
T7 sequence (Q9BQF6 whole entry): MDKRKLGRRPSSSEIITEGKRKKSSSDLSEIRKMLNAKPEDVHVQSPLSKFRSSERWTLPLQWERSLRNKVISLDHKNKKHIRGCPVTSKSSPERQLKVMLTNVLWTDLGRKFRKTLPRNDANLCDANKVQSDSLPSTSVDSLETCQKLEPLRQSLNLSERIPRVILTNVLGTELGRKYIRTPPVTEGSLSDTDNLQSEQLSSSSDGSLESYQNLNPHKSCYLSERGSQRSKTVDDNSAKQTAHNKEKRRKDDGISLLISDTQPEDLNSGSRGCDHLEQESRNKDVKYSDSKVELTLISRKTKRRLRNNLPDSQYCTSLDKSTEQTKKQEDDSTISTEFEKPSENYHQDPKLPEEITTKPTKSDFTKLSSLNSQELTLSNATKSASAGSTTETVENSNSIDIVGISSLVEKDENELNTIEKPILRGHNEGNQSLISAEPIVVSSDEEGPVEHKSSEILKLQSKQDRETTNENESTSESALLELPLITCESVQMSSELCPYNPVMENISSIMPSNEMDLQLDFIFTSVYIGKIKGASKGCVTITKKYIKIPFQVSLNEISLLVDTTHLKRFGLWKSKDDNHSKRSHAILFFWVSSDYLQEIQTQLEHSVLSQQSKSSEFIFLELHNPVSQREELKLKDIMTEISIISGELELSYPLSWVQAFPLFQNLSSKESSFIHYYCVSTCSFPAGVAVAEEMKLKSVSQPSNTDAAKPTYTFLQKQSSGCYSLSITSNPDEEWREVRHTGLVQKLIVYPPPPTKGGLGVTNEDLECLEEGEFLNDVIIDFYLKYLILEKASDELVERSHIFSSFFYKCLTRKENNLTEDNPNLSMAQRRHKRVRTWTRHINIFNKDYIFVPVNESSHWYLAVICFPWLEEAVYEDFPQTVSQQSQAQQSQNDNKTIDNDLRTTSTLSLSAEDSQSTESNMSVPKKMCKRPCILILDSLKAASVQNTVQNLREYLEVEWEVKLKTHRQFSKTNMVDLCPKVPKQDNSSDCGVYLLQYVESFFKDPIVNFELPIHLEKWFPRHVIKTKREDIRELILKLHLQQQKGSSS

[15] = molecular target: T8, Caspase-3 (Homo sapiens, UniProt P42574); format: functional;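 also: Dose-response selectivity test against caspase-3 for candidate inhibitors of sentrin-specific proteases (SENPs)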
T8 sequence (P42574 whole entry): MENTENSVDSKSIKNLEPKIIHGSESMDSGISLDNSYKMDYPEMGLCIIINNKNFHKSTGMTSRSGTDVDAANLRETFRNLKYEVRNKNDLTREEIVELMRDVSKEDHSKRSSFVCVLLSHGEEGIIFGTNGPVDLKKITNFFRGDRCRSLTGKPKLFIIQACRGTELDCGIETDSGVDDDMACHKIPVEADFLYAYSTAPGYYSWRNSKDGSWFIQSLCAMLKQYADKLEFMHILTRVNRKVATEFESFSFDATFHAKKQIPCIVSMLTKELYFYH

Phospholipase A2, sequence (P04054 whole entry): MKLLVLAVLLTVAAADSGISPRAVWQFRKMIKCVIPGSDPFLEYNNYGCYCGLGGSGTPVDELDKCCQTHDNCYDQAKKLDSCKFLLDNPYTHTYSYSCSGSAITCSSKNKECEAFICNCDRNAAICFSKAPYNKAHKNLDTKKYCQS
Beta-galactosidase, sequence (Q8VNN2 whole entry): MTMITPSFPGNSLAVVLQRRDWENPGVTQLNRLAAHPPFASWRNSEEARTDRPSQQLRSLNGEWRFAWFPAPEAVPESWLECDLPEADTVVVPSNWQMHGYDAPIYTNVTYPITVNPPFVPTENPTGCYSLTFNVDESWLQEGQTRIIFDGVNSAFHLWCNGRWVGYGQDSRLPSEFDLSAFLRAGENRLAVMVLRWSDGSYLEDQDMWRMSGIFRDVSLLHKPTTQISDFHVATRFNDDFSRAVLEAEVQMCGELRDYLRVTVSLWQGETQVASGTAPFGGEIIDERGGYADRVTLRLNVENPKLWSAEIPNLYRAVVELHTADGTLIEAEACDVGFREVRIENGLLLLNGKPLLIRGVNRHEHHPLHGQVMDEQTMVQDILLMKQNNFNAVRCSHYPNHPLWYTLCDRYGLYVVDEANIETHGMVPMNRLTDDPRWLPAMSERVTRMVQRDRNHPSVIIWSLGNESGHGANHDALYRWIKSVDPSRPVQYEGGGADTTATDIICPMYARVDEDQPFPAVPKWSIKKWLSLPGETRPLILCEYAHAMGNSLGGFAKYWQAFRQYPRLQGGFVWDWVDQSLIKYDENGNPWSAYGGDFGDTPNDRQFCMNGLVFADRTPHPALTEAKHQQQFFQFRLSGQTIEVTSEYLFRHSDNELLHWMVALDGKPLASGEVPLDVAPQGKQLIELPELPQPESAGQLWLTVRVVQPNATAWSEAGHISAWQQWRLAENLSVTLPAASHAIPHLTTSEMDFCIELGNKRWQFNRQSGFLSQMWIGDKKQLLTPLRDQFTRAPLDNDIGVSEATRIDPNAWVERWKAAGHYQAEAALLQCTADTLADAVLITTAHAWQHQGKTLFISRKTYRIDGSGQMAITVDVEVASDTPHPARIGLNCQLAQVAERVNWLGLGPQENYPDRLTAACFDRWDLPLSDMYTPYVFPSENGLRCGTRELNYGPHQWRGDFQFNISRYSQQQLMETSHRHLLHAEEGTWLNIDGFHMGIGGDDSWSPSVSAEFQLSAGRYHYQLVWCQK
Cytochrome P450 3A4, sequence (P08684 whole entry): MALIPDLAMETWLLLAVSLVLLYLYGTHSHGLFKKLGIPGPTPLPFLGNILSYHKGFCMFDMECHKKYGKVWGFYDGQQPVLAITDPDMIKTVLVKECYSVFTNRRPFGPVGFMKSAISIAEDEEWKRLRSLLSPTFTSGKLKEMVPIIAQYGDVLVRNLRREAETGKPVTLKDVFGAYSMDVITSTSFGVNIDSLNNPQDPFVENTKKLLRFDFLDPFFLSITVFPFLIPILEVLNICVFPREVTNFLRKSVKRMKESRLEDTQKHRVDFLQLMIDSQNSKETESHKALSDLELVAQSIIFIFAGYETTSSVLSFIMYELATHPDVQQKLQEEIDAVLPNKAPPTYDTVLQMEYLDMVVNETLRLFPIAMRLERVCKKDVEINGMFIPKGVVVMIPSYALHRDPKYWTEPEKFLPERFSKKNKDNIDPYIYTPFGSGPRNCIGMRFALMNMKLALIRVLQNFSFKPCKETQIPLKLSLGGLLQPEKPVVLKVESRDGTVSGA
Cytochrome P450 2D6, sequence (P10635 whole entry): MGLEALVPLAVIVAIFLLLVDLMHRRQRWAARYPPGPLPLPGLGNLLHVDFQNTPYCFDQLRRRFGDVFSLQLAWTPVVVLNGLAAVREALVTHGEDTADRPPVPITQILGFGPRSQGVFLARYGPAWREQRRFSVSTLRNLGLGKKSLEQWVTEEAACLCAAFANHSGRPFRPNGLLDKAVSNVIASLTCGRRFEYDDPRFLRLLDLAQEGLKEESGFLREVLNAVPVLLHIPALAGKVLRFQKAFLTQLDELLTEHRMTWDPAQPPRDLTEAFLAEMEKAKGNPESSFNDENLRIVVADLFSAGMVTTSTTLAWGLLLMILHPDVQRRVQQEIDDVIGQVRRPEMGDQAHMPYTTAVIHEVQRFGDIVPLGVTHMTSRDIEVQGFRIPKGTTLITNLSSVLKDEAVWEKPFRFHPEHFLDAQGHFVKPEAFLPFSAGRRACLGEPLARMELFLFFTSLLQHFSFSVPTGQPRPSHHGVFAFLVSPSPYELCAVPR

SMILES: Cc1ccc(C(=O)COC(=O)CNC(=O)c2ccc(Br)o2)cc1[N+](=O)[O-]
- EC50 [1]: > 40 µM (inactive)
- IC50 [2]: > 40 µM (not active)

SMILES: Cc1noc(C)c1S(=O)(=O)N1CCN(S(=O)(=O)c2ccccc2C#N)CC1
- IC50 [3]: > 67.5 µM (inactive)
- IC50 [4]: > 67.5 µM (inactive)

SMILES: COc1ccc(C)cc1Nc1n[n+](-c2ccccc2)c(-c2cc([N+](=O)[O-])cc(OC)c2O)s1
- EC50 [5]: 23.5 µM (inactive)
- EC50 [6]: 58.4 µM (inactive)

SMILES: CCCC(=O)NC(=S)Nc1cccc(Cl)c1N1CCCCC1
- IC50 [7]: 9.11 µM (active)
- IC50 [8]: 6.52 µM (active)

SMILES: O=C(COC(=O)c1cnccn1)c1ccc(Cl)c([N+](=O)[O-])c1
- EC50 [1]: > 40 µM (inactive)
- IC50 [2]: 12.5 µM (active)

SMILES: CCC(C)N(C(=O)COc1ccc(Br)cc1C=O)C1CCS(=O)(=O)C1 (stereo not given)
- IC50 [7]: 10.1 µM (active)
- IC50 [8]: 8.26 µM (active)

SMILES: Cc1ccc(C(=O)NN=C(S)Nc2cccc(Cl)c2Cl)cc1[N+](=O)[O-]
- IC50 [7]: 20.8 µM (inactive)
- IC50 [8]: 13.3 µM (active)

SMILES: Cc1cc(C)c(NC(=O)C2CCCN2C)c(C)c1 (stereo not given)
- AC50 [9]: 25.1 µM (inconclusive)
- IC50 [3]: > 67.3 µM (inactive)
- IC50 [4]: > 67.3 µM (inactive)
- AC50 [10]: 28.2 µM (inconclusive)

SMILES: FC(F)(F)c1cnc(NNC(=S)Nc2cccnc2)c(Cl)c1
- EC50 [1]: > 40 µM (inactive)
- IC50 [2]: 15.1 µM (active)

SMILES: Cc1ccc(C)c(NC(=O)c2cc(-c3cc(C)ccc3O)[nH]n2)c1
- IC50 [11]: > 100 µM (inactive)
- IC50 [12]: > 100 µM (inactive)
- AC50 [13]: 41.9 µM (active)
- IC50 [14]: 5.17 µM (active)
- IC50 [15]: 22.3 µM (active)
